According to ChEMBL document CHEMBL1130643, “Synthesis of benzanilide derivatives as dual acting agents with alpha 1-adrenoceptor antagonistic action and steroid 5-alpha reductase inhibitory activity” (Bioorg Med Chem Lett, 1998):

Columns and labels:
[1] = biological target: T1, Steroid 5-alpha-reductase (Rattus norvegicus, UniProt P24008+P31214); test: Inhibitory activity against prostatic 5-alpha reductase in Sprague-Dawley rat; assay type: protein assay
T1 sequence (P24008 whole entry): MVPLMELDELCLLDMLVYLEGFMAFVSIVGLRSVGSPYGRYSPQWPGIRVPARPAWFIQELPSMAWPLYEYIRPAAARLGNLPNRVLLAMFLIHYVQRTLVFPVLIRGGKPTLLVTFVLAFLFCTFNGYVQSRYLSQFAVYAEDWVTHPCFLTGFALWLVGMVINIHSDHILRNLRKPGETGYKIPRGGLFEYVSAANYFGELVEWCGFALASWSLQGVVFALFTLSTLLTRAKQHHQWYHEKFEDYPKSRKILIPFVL
T1 sequence (P31214 whole entry): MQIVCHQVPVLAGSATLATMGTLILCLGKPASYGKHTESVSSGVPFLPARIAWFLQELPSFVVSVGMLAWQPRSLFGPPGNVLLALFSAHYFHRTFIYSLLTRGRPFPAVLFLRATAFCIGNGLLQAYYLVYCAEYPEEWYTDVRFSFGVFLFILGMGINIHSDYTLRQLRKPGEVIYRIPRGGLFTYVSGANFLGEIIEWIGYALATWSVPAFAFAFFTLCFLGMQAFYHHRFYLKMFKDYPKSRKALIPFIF

[2] = biological target: Adrenergic receptor alpha-1 (Oryctolagus cuniculus); test: Inhibition of phenylephrine-induced contractions in white rabbit prostate.

Row | Structure (SMILES) | IC50 [1] [nM] | pA2 [2]
1 | COc1ccccc1N1CCN(CCOc2ccc(C(=O)Nc3ccccc3OCCCC(=O)O)cc2)CC1 | 29000 | 6.6
2 | CCc1ccc(C(CCN2CCN(c3ccccc3OC)CC2)Oc2ccc(C(=O)Nc3ccccc3OCCCC(=O)O)cc2)cc1 (stereo not given) | 70 | 7.4
3 | COc1ccccc1N1CCN(CCC(Oc2ccc(C(=O)Nc3ccccc3OCCCC(=O)O)cc2)c2ccc(Br)cc2)CC1 (stereo not given) | 210 | 7
4 | COc1ccccc1N1CCN(CCC(Oc2ccc(C(=O)Nc3ccccc3OCCCC(=O)O)cc2)c2ccccc2)CC1 (stereo not given) | 1000 | 7.6
5 | COc1ccccc1N1CCN(CCCOc2ccc(C(=O)Nc3ccccc3OCCCC(=O)O)cc2)CC1 | 41000 | 7
6 | COc1ccccc1N1CCN(CCCC(Oc2ccc(C(=O)Nc3ccccc3OCCCC(=O)O)cc2)c2ccccc2)CC1 (stereo not given) | 750 | 6.5
7 | COc1ccccc1N1CCN(CCCCOc2ccc(C(=O)Nc3ccccc3OCCCC(=O)O)cc2)CC1 | 43000 | 7.1
8 | CCc1ccc(C(CCN2CCN(c3ccccc3OC)CC2)Oc2ccc(NC(=O)c3ccccc3OCCCC(=O)O)cc2)cc1 (stereo not given) | 130 | 6.7
9 | COc1ccccc1N1CCN(CCCCCCOc2ccc(C(=O)Nc3ccccc3OCCCC(=O)O)cc2)CC1 | 9500 | 7
10 | COc1ccccc1N1CCN(CCC(Oc2ccc(NC(=O)c3ccccc3OCCCC(=O)O)cc2)c2ccccc2)CC1 (stereo not given) | 730 | 7.1
11 | COc1ccccc1N1CCN(CCC(Oc2ccc(C(=O)Nc3ccccc3OCCCC(=O)O)cc2)c2ccc(C)cc2)CC1 (stereo not given) | 67 | 7.8
12 | COc1ccccc1N1CCN(CCC(Oc2ccc(NC(=O)c3ccccc3OCCCC(=O)O)cc2)c2ccc(C)cc2)CC1 (stereo not given) | 440 | 7.1
13 | COc1ccccc1N1CCN(CCC(Oc2ccc(NC(=O)c3ccccc3OCCCC(=O)O)cc2)c2ccc(CC(C)C)cc2)CC1 (stereo not given) | 96 | 5.2
14 | COc1ccccc1NC(=O)c1ccc(OCCCN2CCN(c3ccccc3OC)CC2)cc1 | – | 7.1
15 | COc1ccc(C(CCN2CCN(c3ccccc3OC)CC2)Oc2ccc(C(=O)Nc3ccccc3OCCCC(=O)O)cc2)cc1 (stereo not given) | 170 | 6.7
16 | COc1ccccc1N1CCN(CCC(Oc2ccc(C(=O)Nc3ccccc3OCCCC(=O)O)cc2)c2cccc(C)c2)CC1 (stereo not given) | 360 | 6.6
17 | COc1ccccc1N1CCN(CCCCC(Oc2ccc(C(=O)Nc3ccccc3OCCCC(=O)O)cc2)c2ccccc2)CC1 (stereo not given) | 910 | 6.6
18 | COc1ccccc1N1CCN(CCC(Oc2ccc(C(=O)Nc3ccccc3OCCCC(=O)O)cc2)c2ccc(CC(C)C)cc2)CC1 (stereo not given) | 39 | 5.7
